Measured values published in patent US20070203325A1, “Integrase-dirived HIV-inhibiting agents” (priority 2006, published 2007).

What was measured:
[1] = tested on: HIV-1 NL4.3-Nef+/GFP+; assay: Infection of HeLa-β-Gal-CD4/CCR5 cells by virus from producer cells expressing the IN C-terminal domain, MAGI assay; format: cell-based; conditions: viruses produced by 293T cells expressing the protein, 48 h post-infection
[2] = tested on: HIV-1 NL4.3-Nef+/GFP+; assay: Infection of MT4 cells by virus from producer cells expressing the IN C-terminal domain, GFP-positive cell count; format: cell-based; conditions: viruses produced by 293T cells expressing the protein, 48 h post-infection

For “IN C-terminal domain: T7-tagged HIV-1 integrase C-terminal domain 205-288 (SEQ ID NO:2) expressed in viral producer cells”, the “virus infection of HeLa-β-Gal-CD4/CCR5 cells” value [1] was “significantly impaired” and the “virus infection of MT4 cells” value [2] was “significantly impaired”.
